Assay results published in patent publication US8623861B2, “Method of treating demyelination diseases” (priority 2006, dated 2014).

How the values were obtained:
PC 12 cell = conditions: serum withdrawal or addition of hydrogen peroxide, β-amyloid peptide or MPP+; cited from earlier work
C57BL/6 mice [1] = conditions: all groups (con, que, cup, cup+que); data not shown
Procedure: (§1) To test whether quetiapine can protect mouse brain from cuprizone-induced demyelination, 8-week old mice were fed a diet of milled LabDiet® rodent chow (PMI nutrition international LLC, Brentwood, Mo., USA) containing 0.2% cuprizone for 5 weeks (w/w) (Sigma-Aldrich, St. Louis, Mo., USA) as previously described (Morell et al., 1998). […] The study included the following 4 groups (6-8 animals/group): group 1: control, fed with regular chow (con); group 2: pre-administrated with quetiapine (10 mg/kg/day in drinking water) for 1 week, then followed by 5 weeks of quetiapine administration with normal diet (que); group 3: fed for 5 weeks on a cuprizone-containing diet (cup) with regular tap water for drinking; group 4: pre-administrated with quetiapine (10 mg/kg/day in drinking water) for 1 week, then followed by 5 weeks of quetiapine treatment with cuprizone administration (cup+que).
(§2) To study the effect of quetiapine on the remyelination process, an additional two groups (6-8 animals/group) of mice were treated with 0.2% cuprizone in milled chow for 6 weeks, and then returned to a cuprizone-free diet (Matsushima and Morell, 2001). Upon resumption of the cuprizone-free diet, mice were fed with either vehicle (water) or quetiapine (10 mg/kg/day in water, que) for 2 weeks.

C57BL/6 mice [2] = system: C57BL/6 mice
Procedure: as §1, §2
Immediately after the locomotor activity test, spatial working memory was assessed by recording spontaneous alternation behavior in a Y-maze comprised of three 30-cm compartments marked as A, B, and C arms. Spontaneous alternation behavior is based on the natural tendency of rodents to explore a novel environment. In a Y-maze, mice tend to explore the maze by systematically entering each arm. For efficient alternation, mice are required to know which arms have already been visited. Therefore, alternation behavior can be regarded as a measure involving spatial working memory. […] Each mouse was placed at the end of one arm and allowed to move freely through the maze during an 8-min period. The total number and series of arm entries were recorded visually. The number of overlapping entrance sequences (e.g., ABC, BCA) was defined as the number of alternations. The effect was calculated as the percentage of alternation according to the following formula: Percent alternation=(number of alternations)/(total number of arm entries-2)×100 (Wall et al., 2002). Total entries were scored as an index of ambulatory activity in the Y-maze, and mice showing scores below six entries would be excluded.

[3] = system: neural progenitor cell cultures; conditions: in vitro
rats = conditions: He et al., 2005; cited from earlier work
C57BL/6 mice [4] = system: C57BL/6 mice; remark: listed apart in the source
Procedure: as §1, §2
At the end of their treatment period, mice were anaesthetized with pentobarbital sodium at 50 mg/kg and perfused intracardially with 0.01 M PBS followed by 4% paraformaldehyde in PBS, and the brains were post-fixated overnight in 4% paraformaldehyde. Brain tissues were then rinsed 3 times with 0.01 M PBS and cryoprotected in 30% sucrose at 4° C. for one day and frozen at −80° C. for immunostaining. Serial coronal sections were dissected between levels 1 to −1 mm bregma, as defined in the mouse brain atlas of Franklin and Paxinos (Franklin and Paxinos, 1997). Demyelination was evaluated in frozen sections (30 μm) of the corpus callosum using Luxol fast blue with periodic acid-Schiff reaction. Floating frozen sections (30 μm) were incubated with 0.3% of H2O2 in 0.01 M PBS for 30 min at room temperature (RT) for quenching endogenous peroxidase activity, then blocked with 10% goat serum/PBS or 10% rabbit serum (for MBP staining) for 1 hour at RT, and then incubated overnight with the primary antibody(s) diluted in the blocking solution. After rinsing, the sections were incubated with the appropriate biotin-conjugated secondary antibody (1:1000; Vector Laboratories, Burlingame, Calif.) for 1 hour at RT. Sections were then developed with the avidin biotin complex kit (Vector Laboratories, Burlingame, Calif.) and the antibodies were visualized with DAB chromogen (Sigma-Aldrich, St. Louis, Mo.).
A goat polyclonal antibody directed against MBP (1:250; Santa Cruz Biotechnology, CA) was used to detect myelin. A rabbit anti-pi isoform of glutathione S-transferase (GST-pi, 1:500; Stressgen, Victoria, BC, Canada) was used as a marker for mature oligodendrocytes (Mason et al., 2004); Ness et al., 2005). The rabbit polyclonal NG2 antibody (1:200; Chemicon, Temecula, Calif.) was used as a marker for oligodendrocyte progenitors (Nishiyama et al., 1996).
For GST-pi and NG2 quantification, three digital pictures from the coronal section from each animal (including the middle line and the two edges of the corpus callosum in each section) were examined. Cell counts are expressed as the mean number of positive cells counted in three coronal sections from two different areas, 500 μm apart, between 1 to −1 mm bregma, following the mouse brain atlas of Franklin and Paxinos (Franklin and Paxinos, 1997). Results are expressed as the average of at least 6 mice per group. For MBP staining analysis, three digital pictures from the coronal section (including cerebral cortex) of each animal were examined, at least 6 animals of each group.

BDNF = conditions: Xu et al., 2002; Luo et al., 2004; cited from earlier work
[5] = He et al., 2006; Martin et al., 2005; cited from earlier work
[6] = 2 weeks of recovery from cuprizone, quetiapine 10 mg/kg/day in water vs. vehicle (water)
[7] = 0.2% cuprizone 5 weeks with quetiapine co-administration vs. cuprizone alone
[8] = quetiapine alone with normal diet vs. control

Compound | PC 12 cell death (PC 12 cell) | locomotor activity (C57BL/6 mice [1]) | total number of arm entries in Y-maze (C57BL/6 mice [2]; 0.2% cuprizone 5 weeks, co-administration of quetiapine 10 mg/kg/day p.o.) | impairment of spontaneous alternation behavior in the Y-maze (C57BL/6 mice [2]; 0.2% cuprizone 5 weeks, co-administration of quetiapine 10 mg/kg/day p.o., ++p<0.01 vs. cuprizone) | memory impairment in Y-maze during remyelination (C57BL/6 mice [2]; [6]) | total arm entries in the Y-maze during remyelination (C57BL/6 mice [2]; [6]) | proliferation and differentiation of oligodendrocytes [3] | short- and long-term behavioral consequences of chronic dl-amphetamine (rats) | loss of GST-pi+ mature oligodendrocytes in the corpus callosum (C57BL/6 mice [4]; 0.2% cuprizone 5 weeks with quetiapine co-administration) | demyelination in LFB-PAS staining (C57BL/6 mice [4]; [7]) | number of NG2+ cells within the demyelinated areas (C57BL/6 mice [4]; [7]) | reduction of demyelination in MBP staining (C57BL/6 mice [4]; [7]) [%] | remyelination in demyelinated lesions (MBP and LFB-PAS) (C57BL/6 mice [4]; 2-week recovery from cuprizone, quetiapine vs. vehicle (water)) | NG2+ cells after recovery (C57BL/6 mice [4]; 2 weeks recovery from cuprizone, quetiapine vs. water) | GST-pi+ mature oligodendrocytes during remyelination (C57BL/6 mice [4]; 2 weeks recovery from demyelination, quetiapine vs. water, +p<0.05 vs. water) | NG2+ cells, quetiapine alone (C57BL/6 mice [4]; quetiapine alone with normal diet) | GST-pi+ cells, quetiapine alone (C57BL/6 mice [4]; [8]) | myelination (MBP staining), quetiapine alone (C57BL/6 mice [4]; [8]) | expression of BDNF in rat hippocampus after immobilization stress (BDNF) | memory deficits induced by phencyclidine and kainic acid [5]
Cc1nc2n(c(=O)c1CCN1CCC(c3noc4cc(F)ccc34)CC1)CCCC2 [risperidone] | reduce the PC 12 cell death |  |  |  |  |  |  |  |  |  |  |  |  |  |  |  |  |  |  | 
OCCOCCN1CCN(C2=Nc3ccccc3Sc3ccccc32)CC1 [quetiapine] | reduce the PC 12 cell death | no significant difference among groups | decreased the rise of the total number of arm entries induced by cuprizone | significantly attenuated the impairment of spontaneous alternation behavior | did not appear to improve memory impairment | did not appear to improve memory impairment or alter the total arm entries | promoted the proliferation and differentiation of oligodendrocytes | modulate the short- and long-term behavioral consequences | did not reverse the loss of mature oligodendrocytes | showed the same trend as MBP staining | dramatically decreased the number of NG2+ cells | 35 | no difference between the vehicle (water) and quetiapine treatment on remyelination | had little effect on this change | dramatically increased | Few NG2+ cells were observed | had no difference | show no difference on myelination | attenuate the immobilization stress-induced decrease in the expression of BDNF | could reverse memory deficits
